Columns and labels:
[1] = target: human orexin-2 receptor (Homo sapiens (Human), UniProt O43614); assay: FLIPR Ca2+ flux assay, orexin-2 receptor antagonism; assay type: cell-based; conditions: CHO cells; agonist 70 pM Ala-6,12 human orexin-A; read-out: hOX2R FLIPR IC50
Protocol: In a typical experiment the OX1 and OX2 receptor antagonistic activity of the compounds of the present invention was determined in accordance with the following experimental method. For intracellular calcium measurements, Chinese hamster ovary (CHO) cells expressing the rat orexin-1 receptor or the human orexin-2 receptor, are grown in Iscove's modified DMEM containing 2 mM L-glutamine, […], 1% hypoxanthine-thymidine supplement, 100 U/ml penicillin, 100 μg/ml streptomycin and 10% heat-inactivated fetal calf serum (FCS). The cells are seeded at 20,000 cells/well into Becton-Dickinson black 384-well clear bottom sterile plates coated with poly-D-lysine. All reagents were from GIBCO-Invitrogen Corp. The seeded plates are incubated overnight at 37° C. and 5% CO2. Ala-6,12 human orexin-A as the agonist is prepared as a 1 mM stock solution in 1% bovine serum albumin (BSA) and diluted in assay buffer (HBSS containing 20 mM HEPES, 0.1% BSA and 2.5 mM probenecid, pH7.4) for use in the assay at a final concentration of 70 pM. Test compounds are prepared as 10 mM stock solution in DMSO, then diluted in 384-well plates, first in DMSO, then assay buffer. On the day of the assay, cells are washed 3 times with 100 μl assay buffer and then incubated for 60 min (37° C., 5% CO2) in 60 μl assay buffer containing 1 μM Fluo-4AM ester, 0.02% pluronic acid, and 1% BSA. The dye loading solution is then aspirated and cells are washed 3 times with 100 μl assay buffer. 30 μl of that same buffer is left in each well. Within the Fluorescent Imaging Plate Reader (FLIPR, Molecular Devices), test compounds are added to the plate in a volume of 25 μl, incubated for 5 min and finally 25 μl of agonist is added. Fluorescence is measured for each well at 1 second intervals for 5 minutes and the height of each fluorescence peak is compared to the height of the fluorescence peak induced by 70 pM Ala-6,12 orexin-A with buffer in place of antagonist. […] The intrinsic orexin receptor antagonist activity of a compound which may be used in the present invention may be determined by these assays.

[2] = target: hOX1R (Homo sapiens, UniProt O43613); assay: FLIPR Ca2+ flux assay, orexin-1 receptor antagonism; assay type: cell-based; conditions: CHO cells; agonist 70 pM Ala-6,12 human orexin-A

Chain of human orexin-2 receptor (O43614 whole entry): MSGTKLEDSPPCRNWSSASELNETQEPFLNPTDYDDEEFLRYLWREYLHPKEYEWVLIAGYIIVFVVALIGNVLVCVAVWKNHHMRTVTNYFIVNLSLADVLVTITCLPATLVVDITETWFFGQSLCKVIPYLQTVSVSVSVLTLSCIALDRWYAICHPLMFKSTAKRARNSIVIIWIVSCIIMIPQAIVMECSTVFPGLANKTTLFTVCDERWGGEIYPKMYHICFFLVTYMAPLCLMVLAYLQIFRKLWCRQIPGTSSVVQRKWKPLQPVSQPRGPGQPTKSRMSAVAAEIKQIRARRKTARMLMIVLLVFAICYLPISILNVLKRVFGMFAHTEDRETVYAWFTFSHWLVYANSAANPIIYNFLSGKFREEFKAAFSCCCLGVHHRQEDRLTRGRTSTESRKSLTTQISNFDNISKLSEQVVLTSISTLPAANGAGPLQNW

Row | Structure (SMILES) | IC50 [1] [nM] | IC50 [2] [nM]
1 | COC(=O)c1c(OC)ccnc1O[C@@H]1CC[C@@H](C)N(C(=O)c2ccccc2-n2nccn2)C1 [Example 1, Methyl 4-methoxy-2-{[(3R,6R)-6-methyl-1-{[2-(2H-1,2,3-triazol-2-yl)phenyl]carbonyl}piperidin-3-yl]oxy}pyridine-3-carboxylate] | 33 | 1340
2 | COC(=O)c1c(OC)ccnc1O[C@@H]1CC[C@@H](C)N(C(=O)c2cc(F)ccc2-c2noc(C)n2)C1 [Example 9] | 36.7 | 1500
3 | COC(=O)c1c(OC)ccnc1O[C@@H]1CC[C@@H](C)N(C(=O)c2c(F)cccc2-c2noc(C)n2)C1 [Example 8, methyl 2-{[(3R,6R)-1-{[2-fluoro-6-(5-methyl-1,2,4-oxadiazol-3-yl)phenyl]carbonyl}-6-methylpiperidin-3-yl]oxy}-4-methoxypyridine-3-carboxylate] | 71.1 | 10000
4 | COC(=O)c1c(OC)ccnc1O[C@@H]1CC[C@@H](C)N(C(=O)c2cccc(F)c2-c2ncccn2)C1 [Example 22, methyl 2-({(3R,6R)-1-[(3-fluoro-2-pyrimidin-2-ylphenyl)carbonyl]-6-methylpiperidin-3-yl}oxy)-4-methoxypyridine-3-carboxylate] | 117 | 3780
5 | COC(=O)c1c(OC)ccnc1O[C@@H]1CC[C@@H](C)N(C(=O)c2cc(F)ccc2-n2nccn2)C1 [Example 7, methyl 2-{[(3R,6R)-1-{[5-fluoro-2-(2H-1,2,3-triazol-2-yl)phenyl]carbonyl}-6-methylpiperidin-3-yl]oxy}-4-methoxypyridine-3-carboxylate] | 27.6 | 1460
